Where “and” joins values, the source holds several entries; their conditions need not be identical. Equal entries are not always repeated.
Key:
[1] = test system: guinea pig lung slices; experiment: Methacholine-induced airway constriction in guinea pig lung slices; format: cell-based; set-up: key to MCh-induced airway constriction response (Figure 5D): % of initial (baseline) airway luminal area; settings: for MCh-induced airway constriction response (Figure 5D): 10 µM Fenoterol + 25 µM Cmp6, Exp1-6
Description: All curve fits were generated using the software program GraphPad Prism. Data are represented as mean ± SEM obtained from 6 guinea pigs.
(§1) Precision-cut lung slices were prepared as described previously ([61], [62]). A 3% solution of low melting-point agarose (Gerbu Biotechnik GmbH) in ultrapure water was prepared by heating it a microwave until fully dissolved. […] After filling, the lungs were covered with ice for 30 minutes to solidify the agarose for slicing. […] Lung slices were cut at a thickness of 500 μm and washed several times with slicing buffer to remove debris and washout the isoproterenol. Slices were incubated overnight in a 60 mm dish in sterile incubation buffer: MEM composed of lung slice buffer supplemented with 0.5 mM sodium pyruvate, 1 mM glutamine (Gibco), MEM-amino acids mixture (1:50), MEM-vitamins mixture (1:100; Gibco), and penicillin-streptomycin (1:100; Gibco), pH = 7.2, at 37°C in a CO2- and humidity-controlled atmosphere.
(§2) After washing the slices in medium, individual guinea pig lung slices were mechanically maintained with a Teflon ring with an inner diameter of 7 mm and covered with 1 mL of incubation buffer. […] Image acquisition software (NIS-Elements, Nikon) was used to quantify airway luminal area. Images of the airways were acquired every 2 seconds during the whole course of the experiment, starting 2 minutes before the addition of any agent to allow for baseline measurements of the airway caliber. For each methacholine or ovalbumin concentration, the maximal airway constriction was expressed as percentage of the initial (baseline) airway luminal area and plotted against that concentration.

[2] = target: WT murine β2AR (Mus musculus, UniProt P18762); experiment: 125I-CYP radioligand competition binding, WT murine β2AR; settings: WT DMSO
Chain of WT murine β2AR (P18762 whole entry): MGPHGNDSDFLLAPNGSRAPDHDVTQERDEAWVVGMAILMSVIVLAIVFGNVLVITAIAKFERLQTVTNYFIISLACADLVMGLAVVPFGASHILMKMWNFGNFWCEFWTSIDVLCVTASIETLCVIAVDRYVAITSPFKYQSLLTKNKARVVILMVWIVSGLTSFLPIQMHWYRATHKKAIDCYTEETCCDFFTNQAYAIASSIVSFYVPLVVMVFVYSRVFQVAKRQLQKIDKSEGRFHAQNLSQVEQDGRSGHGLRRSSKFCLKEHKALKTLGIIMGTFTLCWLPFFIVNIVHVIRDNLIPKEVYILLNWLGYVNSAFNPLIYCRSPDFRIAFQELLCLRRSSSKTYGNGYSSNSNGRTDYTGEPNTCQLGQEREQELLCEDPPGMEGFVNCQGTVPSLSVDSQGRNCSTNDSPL
Description: (§3) Statistical analyses were performed using 1-way ANOVA, repeated (related) measures with Tukey’s posthoc test.

[3] = target: guinea pig β2AR (Cavia porcellus, UniProt Q8K4Z4); experiment: 125I-CYP radioligand competition binding, guinea pig β2AR; settings: DMSO
Chain of guinea pig β2AR (Q8K4Z4 whole entry): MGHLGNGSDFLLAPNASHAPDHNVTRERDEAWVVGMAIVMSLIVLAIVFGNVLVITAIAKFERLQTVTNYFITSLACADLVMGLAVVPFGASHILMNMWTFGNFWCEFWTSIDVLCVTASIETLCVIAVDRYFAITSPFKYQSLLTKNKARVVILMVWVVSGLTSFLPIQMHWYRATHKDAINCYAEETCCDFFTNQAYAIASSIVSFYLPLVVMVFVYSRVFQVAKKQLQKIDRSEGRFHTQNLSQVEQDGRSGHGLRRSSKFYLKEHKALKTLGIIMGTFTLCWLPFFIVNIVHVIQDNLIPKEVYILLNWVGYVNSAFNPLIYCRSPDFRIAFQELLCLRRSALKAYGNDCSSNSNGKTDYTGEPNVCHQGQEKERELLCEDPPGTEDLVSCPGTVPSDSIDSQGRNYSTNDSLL

[4] = target: V133F mutant murine β2AR (Mus musculus, UniProt P18762, V133F); experiment: 125I-CYP radioligand competition binding, V133F mutant murine β2AR; settings: V133F DMSO
Chain of V133F mutant murine β2AR (P18762 whole entry V133F): as the sequence (P18762 whole entry) above, with V133F counted along it
Description: as §3

[5] = test system: lung slices obtained from ovalbumin-sensitized guinea pigs; experiment: Ovalbumin-induced airway constriction in lung slices from ovalbumin-sensitized guinea pigs; format: cell-based, guinea pig; settings: ovalbumin-sensitized guinea pigs; no treatment
Text: All curve fits were generated using the software program GraphPad Prism. Data are represented as mean ± SEM of 4–5 guinea pigs (see Table 2 for statistical analyses).
Outbred, male, specified pathogen-free Dunkin Hartley guinea pigs (Charles River Laboratory) weighing 200 to 400 g were used. The animals were housed in pairs under a 12-hour light/dark cycle in a temperature- and humidity-controlled room with food and tap water ad libitum. For studies in the guinea pig model of allergic asthma, animals were actively IgE-sensitized to ovalbumin by injecting a suspension containing 100 μg/mL ovalbumin and 100 mg/mL Al(OH)3 in saline. Each animal was injected with 1.0 mL of suspension: 0.5 mL was injected i.p. and 0.5 mL was divided over 7 s.c. sites close to lymph nodes in the neck, paws, and lumbar regions ([24]). Animals were euthanized at least 4 weeks after sensitization.
as §1, §2

## COc1ccc(Sc2ccc(S(=O)(=O)N(C)C(C)C)cc2C(=O)N[C@H](CC(N)=O)Cc2ccc(C(C)(C)C)cc2)cc1 [Cmp6]
[1]; -Log [MCh] 6.5
  MCh-induced airway constriction response (Figure 5D): 84.9 and 96.3 and 94.4 and 89.0 and 84.3
[1]; -Log [MCh] 7
  MCh-induced airway constriction response (Figure 5D): 103.8 and 101.2 and 95.0 and 101.0 and 99.7
[1]; -Log [MCh] 7.5
  MCh-induced airway constriction response (Figure 5D): 104.7 and 102.5 and 101.8 and 96.6 and 103.6 and 102.8
[1]; -Log [MCh] 8
  MCh-induced airway constriction response (Figure 5D): 105.1 and 102.7 and 102.2 and 96.3 and 103.7 and 102.1

## CC(C)NCC(O)c1ccc(O)c(O)c1 (stereo not shown) [ISO, isoproterenol, reference compound]
[2]; log[ISO] -4 M
  125I-CYP binding (% of maximal): -0.1438% and -0.4111% and -0.227% and -0.3498%
[2]; log[ISO] -4.49485 M
  125I-CYP binding (% of maximal): 2.592% and 1.529% and 1.507% and 1.987%
[2]; log[ISO] -5.09691 M
  125I-CYP binding (% of maximal): 7.083% and 4.639% and 5.507% and 5.149%
[2]; log[ISO] -5.69897 M
  125I-CYP binding (% of maximal): 19.715% and 17.6774% and 15.359% and 15.8985%
[2]; log[ISO] -6.30103 M
  125I-CYP binding (% of maximal): 44.1973% and 39.2701% and 36.5787% and 38.852%
[2]; log[ISO] -6.90309 M
  125I-CYP binding (% of maximal): 69.5556% and 67.7036% and 62.3553% and 65.7463%
[2]; log[ISO] -7.50515 M
  125I-CYP binding (% of maximal): 90.4216% and 85.9767% and 84.6762% and 89.3527%
[2]; log[ISO] -8.10721 M
  125I-CYP binding (% of maximal): 98.0111% and 97.6178% and 94.6894% and 94.0001%
[2]; log[ISO] -8.70927 M
  125I-CYP binding (% of maximal): 99.06% and 99.1113% and 98.9767% and 100.68%
[2]; log[ISO] -9.31133 M
  125I-CYP binding (% of maximal): 98.5309% and 100.484% and 102.846% and 102.836%
[2]; log[ISO] -9.91339 M
  125I-CYP binding (% of maximal): 103.967% and 101.665% and 101.826% and 99.0182%
[3]; Log [ISO] (M) -4.49485
  125I-CYP binding, ISO competition curve (Figure 4B): 1.551 and 1.783 and 2.036 and 2.11 and 1.706
[3]; Log [ISO] (M) -5.09691
  125I-CYP binding, ISO competition curve (Figure 4B): 4.5383 and 7.032 and 7.563 and 7.078 and 5.303
[3]; Log [ISO] (M) -5.69897
  125I-CYP binding, ISO competition curve (Figure 4B): 13.7083 and 20.96 and 21.5014 and 20.9933 and 15.5868
[3]; Log [ISO] (M) -6.90309
  125I-CYP binding, ISO competition curve (Figure 4B): 63.0711 and 57.4939 and 78.0004 and 74.7226 and 70.0255
[3]; Log [ISO] (M) -7.50515
  125I-CYP binding, ISO competition curve (Figure 4B): 85.6262 and 93.2237 and 94.6971 and 93.7843 and 89.3743
[3]; Log [ISO] (M) -8.10721
  125I-CYP binding, ISO competition curve (Figure 4B): 99.3825 and 97.8919 and 98.1464 and 96.8121 and 98.8078
[3]; Log [ISO] (M) -8.70927
  125I-CYP binding, ISO competition curve (Figure 4B): 98.4434 and 97.4234 and 99.4183 and 101.041 and 99.2113
[3]; Log [ISO] (M) -9.31133
  125I-CYP binding, ISO competition curve (Figure 4B): 100.682 and 98.3967 and 100.968 and 99.8594 and 99.9768
[3]; Log [ISO] (M) -9.91339
  125I-CYP binding, ISO competition curve (Figure 4B): 97.8042 and 98.3188 and 100.175 and 101.941 and 100.458
[4]; log[ISO] -4 M
  125I-CYP binding (% of maximal): -0.1642% and -0.422% and -0.2235% and 0.05522%
[4]; log[ISO] -4.49485 M
  125I-CYP binding (% of maximal): 1.355% and 1.539% and 1.229% and 0.6906%
[4]; log[ISO] -5.09691 M
  125I-CYP binding (% of maximal): 4.785% and 4.497% and 3.5069% and 4.749%
[4]; log[ISO] -5.69897 M
  125I-CYP binding (% of maximal): 14.8509% and 14.5905% and 12.5433% and 13.7771%
[4]; log[ISO] -6.30103 M
  125I-CYP binding (% of maximal): 36.9962% and 34.2695% and 32.8754% and 34.2526%
[4]; log[ISO] -6.90309 M
  125I-CYP binding (% of maximal): 66.198% and 62.9489% and 57.7767% and 62.1859%
[4]; log[ISO] -7.50515 M
  125I-CYP binding (% of maximal): 86.6591% and 87.6539% and 79.9524% and 86.2876%
[4]; log[ISO] -8.10721 M
  125I-CYP binding (% of maximal): 96.9071% and 95.4546% and 94.0497% and 96.919%
[4]; log[ISO] -8.70927 M
  125I-CYP binding (% of maximal): 99.4994% and 99.6962% and 98.92% and 100.879%
[4]; log[ISO] -9.31133 M
  125I-CYP binding (% of maximal): 99.9887% and 99.7215% and 100.53% and 99.951%
[4]; log[ISO] -9.91339 M
  125I-CYP binding (% of maximal): 102.257% and 101.759% and 102.441% and 98.1746%

## CC(=O)OC(C)C[N+](C)(C)C (stereo not shown) [Methacholine, methacholine]
[1]; Cavia porcellus, naive guinea pigs, no treatment, read-out: EC50 of airway constriction
  EC50: 0.25 ± 0.06 µM

B1: Ovalbumin: the allergen used in IgE-sensitized guinea pigs (protein, UniProt P01012 2-386, looked up)
Ovalbumin: GSIGAASMEFCFDVFKELKVHHANENIFYCPIAIMSALAMVYLGAKDSTRTQINKVVRFDKLPGFGDSIEAQCGTSVNVHSSLRDILNQITKPNDVYSFSLASRLYAEERYPILPEYLQCVKELYRGGLEPINFQTAADQARELINSWVESQTNGIIRNVLQPSSVDSQTAMVLVNAIVFKGLWEKAFKDEDTQAMPFRVTEQESKPVQMMYQIGLFRVASMASEKMKILELPFASGTMSMLVLLPDEVSGLEQLESIINFEKLTEWTSSNVMEERKIKVYLPRMKMEEKYNLTSVLMAMGITDVFSSSANLSGISSAESLKISQAVHAAHAEINEAGREVVGSAEAGVDAASVSEEFRADHPFLFCIKHIATNAVLFFGRCVSP
[5]
  EC50 of airway constriction: 8.0 ± 2.4 ng/mL

Source: PMC10503797, “Allosteric modulator potentiates β2AR agonist–promoted bronchoprotection in asthma models” (The Journal of Clinical Investigation, 2023)
